pIC50: −log10 of the molar value. The source made the active and inactive calls. No cut-off for these calls is given here.

The term pIC50 denotes −log10 of the IC50, conventionally taken in molar units. The inhibition is how much of the control response was suppressed.

One experiment addresses T1, Dipeptidyl peptidase 4 (Homo sapiens, UniProt P27487). The experiment in a line: Inhibition of DPP4 assessed as […] release after 1 hr.
Turning to `O=C1c2c(Cl)c(Cl)c(Cl)c(Cl)c2C(=O)N1c1cccc(CCc2ccccc2C(F)(F)F)c1`, the pIC50 is 5.40 and the inhibition result is “Active”.
On to `O=C1c2c(Cl)c(Cl)c(Cl)c(Cl)c2C(=O)N1c1cccc(CCc2cccc(C(F)(F)F)c2)c1`, for which the pIC50 is 5.51 and the inhibition entry was “Active”.

The target in a further experiment is Dipeptidyl peptidase 8 (Homo sapiens, UniProt Q6V1X1). The experiment in a line: Inhibition of DPP8 assessed as […] release after 1 hr.
Sequence of Dipeptidyl peptidase 8 (Q6V1X1 whole entry): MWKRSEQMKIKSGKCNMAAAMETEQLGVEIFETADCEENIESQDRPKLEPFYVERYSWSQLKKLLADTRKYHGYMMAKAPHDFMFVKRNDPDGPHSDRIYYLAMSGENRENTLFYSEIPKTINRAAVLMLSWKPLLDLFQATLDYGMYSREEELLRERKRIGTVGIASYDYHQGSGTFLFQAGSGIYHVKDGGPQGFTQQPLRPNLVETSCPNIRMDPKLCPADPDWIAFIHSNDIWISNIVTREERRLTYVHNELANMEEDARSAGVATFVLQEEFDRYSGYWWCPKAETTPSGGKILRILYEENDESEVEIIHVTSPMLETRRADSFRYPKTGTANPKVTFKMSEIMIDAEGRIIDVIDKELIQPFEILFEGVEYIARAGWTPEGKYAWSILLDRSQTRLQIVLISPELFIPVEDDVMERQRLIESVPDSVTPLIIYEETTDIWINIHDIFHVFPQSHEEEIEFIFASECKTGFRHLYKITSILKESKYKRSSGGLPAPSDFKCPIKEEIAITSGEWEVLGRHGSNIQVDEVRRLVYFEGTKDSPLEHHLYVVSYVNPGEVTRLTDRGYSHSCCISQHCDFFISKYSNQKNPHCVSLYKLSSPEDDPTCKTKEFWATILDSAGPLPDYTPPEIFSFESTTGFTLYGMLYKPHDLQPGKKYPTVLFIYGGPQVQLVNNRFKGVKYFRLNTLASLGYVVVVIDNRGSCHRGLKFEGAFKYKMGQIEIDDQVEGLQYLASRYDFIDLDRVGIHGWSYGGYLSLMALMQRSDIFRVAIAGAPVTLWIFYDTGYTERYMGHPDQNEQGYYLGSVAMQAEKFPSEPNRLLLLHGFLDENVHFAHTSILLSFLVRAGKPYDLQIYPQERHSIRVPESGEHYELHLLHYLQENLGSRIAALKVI
`O=C1c2c(Cl)c(Cl)c(Cl)c(Cl)c2C(=O)N1c1cccc(CCc2cccc(C(F)(F)F)c2)c1`: the pIC50 was less than 4.52.

The target in the next experiment is T1, Dipeptidyl peptidase 4. As to the kind of experiment: Inhibition of DPP4 at 10 uM assessed as […] release after 1 hr relative to control.
Target sequence in this assay (P27487 whole entry, looked up): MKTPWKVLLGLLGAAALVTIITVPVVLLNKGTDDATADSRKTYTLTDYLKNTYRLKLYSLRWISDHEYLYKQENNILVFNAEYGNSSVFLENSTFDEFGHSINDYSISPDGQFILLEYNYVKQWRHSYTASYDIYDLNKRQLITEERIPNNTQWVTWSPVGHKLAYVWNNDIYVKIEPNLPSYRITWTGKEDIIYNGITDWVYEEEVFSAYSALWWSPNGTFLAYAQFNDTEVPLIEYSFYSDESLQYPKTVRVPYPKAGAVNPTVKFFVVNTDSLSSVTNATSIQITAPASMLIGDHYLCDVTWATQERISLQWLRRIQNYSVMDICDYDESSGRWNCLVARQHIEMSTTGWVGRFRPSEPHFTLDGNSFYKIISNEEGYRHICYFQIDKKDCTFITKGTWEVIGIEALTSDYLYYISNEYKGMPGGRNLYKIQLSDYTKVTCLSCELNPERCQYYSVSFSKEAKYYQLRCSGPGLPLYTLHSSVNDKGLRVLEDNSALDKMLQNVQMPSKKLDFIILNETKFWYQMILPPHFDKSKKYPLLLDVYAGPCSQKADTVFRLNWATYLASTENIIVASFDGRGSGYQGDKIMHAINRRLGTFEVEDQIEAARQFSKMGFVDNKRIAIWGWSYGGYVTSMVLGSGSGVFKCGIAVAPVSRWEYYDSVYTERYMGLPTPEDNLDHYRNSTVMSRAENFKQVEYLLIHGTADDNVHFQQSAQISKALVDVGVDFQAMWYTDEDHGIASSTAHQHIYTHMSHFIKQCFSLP
With `O=C1c2c(Cl)c(Cl)c(Cl)c(Cl)c2C(=O)N1c1cccc(CCc2ccc(C(F)(F)F)cc2)c1`, the inhibition came to 38%.
The same measure, in the same setting: with `O=C1c2ccccc2C(=O)N1c1cccc(CCc2ccccc2)c1` the figure was 2%; with `O=C1c2c(Cl)c(Cl)c(Cl)c(Cl)c2C(=O)N1c1cccc(CCc2ccc(O)c(O)c2)c1`, 5%; with `O=C1c2c(Cl)c(Cl)c(Cl)c(Cl)c2C(=O)N1c1ccccc1CCc1ccccc1`, 7%.
Still for that read-out and setting: with `O=C1c2c(Cl)c(Cl)c(Cl)c(Cl)c2C(=O)N1c1ccccc1CCc1ccc(O)c(O)c1` the figure was 12%.
Turning to `O=C1c2c(Cl)c(Cl)c(Cl)c(Cl)c2C(=O)N1c1ccc(CCc2ccc(O)c(O)c2)cc1`, the inhibition came out at 11%.
With `O=C1c2ccccc2C(=O)N1c1cccc(CCc2ccc(O)c(O)c2)c1`, the inhibition was found to be 7%.
Still for that read-out and setting: the same measure for `O=C1c2c(Cl)c(Cl)c(Cl)c(Cl)c2C(=O)N1c1cccc(CCc2ccccc2C(F)(F)F)c1`: 86%; for `O=C1c2c(Cl)c(Cl)c(Cl)c(Cl)c2C(=O)N1c1cccc(CCc2c(F)c(F)c(F)c(F)c2F)c1`: 19%; for `COc1ccc(CCc2ccccc2N2C(=O)c3c(Cl)c(Cl)c(Cl)c(Cl)c3C2=O)cc1OC`: 2%.
As for `COc1ccc(CCc2cccc(N3C(=O)c4ccccc4C3=O)c2)cc1OC`, the inhibition is 0%.
On the same count and under the same terms, with `Cc1ccc(CCc2cccc(N3C(=O)c4c(Cl)c(Cl)c(Cl)c(Cl)c4C3=O)c2)cc1` the figure was 25%.
As for `COc1ccc(CCc2ccc(N3C(=O)c4c(Cl)c(Cl)c(Cl)c(Cl)c4C3=O)cc2)cc1OC`, the inhibition was 3%.
Still for that read-out and setting: the same measure for `O=C1c2ccccc2C(=O)N1c1ccccc1CCc1ccccc1`: 0%; for `O=C1c2c(Cl)c(Cl)c(Cl)c(Cl)c2C(=O)N1c1cccc(CCc2cccc(C(F)(F)F)c2)c1`: 87%; for `O=C1c2ccccc2C(=O)N1c1ccccc1CCc1ccc(O)c(O)c1`: 4%.
Still for that read-out and setting: with `O=C1c2c(Cl)c(Cl)c(Cl)c(Cl)c2C(=O)N1c1ccc(CCc2ccccc2)cc1` the figure was 12%; with `O=C1c2c(Cl)c(Cl)c(Cl)c(Cl)c2C(=O)N1c1cccc(CCc2ccccc2)c1`, 26%; with `COc1ccc(CCc2ccc(N3C(=O)c4ccccc4C3=O)cc2)cc1OC`, 0%.
On the same count and under the same terms, the same measure for `O=C1c2ccccc2C(=O)N1c1ccc(CCc2ccccc2)cc1`: 6%; for `COc1ccc(CCc2ccccc2N2C(=O)c3ccccc3C2=O)cc1OC`: 0%; for `O=C1c2ccccc2C(=O)N1c1ccc(CCc2ccc(O)c(O)c2)cc1`: 7%.
As for `COc1ccc(CCc2cccc(N3C(=O)c4c(Cl)c(Cl)c(Cl)c(Cl)c4C3=O)c2)cc1OC`, the inhibition was 0%.
Still for that read-out and setting: the same measure for `O=C1c2c(Cl)c(Cl)c(Cl)c(Cl)c2C(=O)N1c1cccc(CCc2ccc(F)cc2)c1`: 20%.

Test system in another experiment: not listed separately
The experiment in a line: Selectivity ratio of IC50 for DPP4 over IC50 for DPP8.
Consider `O=C1c2c(Cl)c(Cl)c(Cl)c(Cl)c2C(=O)N1c1cccc(CCc2cccc(C(F)(F)F)c2)c1`, for which the Ratio IC50 was determined as 10.
